From patent publication US6168798A, “Non-irritating composition for treating acne and other skin conditions” (Bristol-Myers Squibb Company, priority 1997, dated 2001)

System: isolated bovine corneas
Description: The bovine corneal opacity and permeability assay (BCOP) was used to assess the ocular irritancy of test formulations to isolated bovine corneas. Bovine corneas, obtained as a by-product from freshly slaughtered animals, were mounted in special holders and exposed to the test formulations. An in vitro score was determined for each test material based on the induction of opacity and permeability to fluorescein in the isolated bovine corneas. In these experiments, the potential ocular irritancy of the composition formulated in accordance with the invention and exemplified in Table 1 was compared with that of the commercially-available comparative product. Ocular irritancy was measured by changes in opacity and permeability to fluorescein in isolated bovine corneas. Five corneas were treated with each test material. Based on changes in corneal opacity and permeability relative to control corneas, an in vitro score was determined. […]
After a minimum of one hour of incubation, the corneal holders with the corneas in place were removed from the incubator and the medium was removed from both compartments and replaced with fresh medium. The opacity was determined for each cornea using a Spectro Design OP-KIT opacitometer. Three corneas whose opacity readings were close to the median opacity for all of the corneas were selected as the negative control corneas. […]

CCO [ethanol (95%), ethanol]
Irritation potential rating from in vitro score: moderate to severe
